In brackets after ≈: the same amount, converted by molar mass.
Tests used:
[1] = test system: Staphylococcus epidermidis; assay: In vitro antibacterial activity expressed as MIC against Staphylococcus epidermidis; assay type: functional
[2] = In vitro antibacterial activity expressed as MIC against Clostridium perfringens; assay type: functional
[3] = test system: Streptococcus pneumoniae; assay: In vitro antibacterial activity expressed as MIC against Streptococcus pneumoniae; assay type: functional
[4] = test system: Pseudomonas aeruginosa; assay: In vitro antibacterial activity expressed as MIC against Pseudomonas aeruginosa; assay type: functional
[5] = test system: Providencia rettgeri; assay: (§1) In vitro antibacterial activity expressed as MIC against Providencia rettgeri; assay type: functional
[6] = test system: Enterococcus faecalis; assay: In vitro antibacterial activity expressed as MIC against Enterococcus faecalis; assay type: functional
[7] = target: T1, DNA gyrase (Escherichia coli) (UniProt P0AES6+P0AES4); assay: In vitro antibacterial activity expressed as MIC against Escherichia coli HR DNA gyrase; assay type: protein-complex assay
[8] = target: T1, DNA gyrase (Escherichia coli); assay: In vitro inhibitory concentration which show total effect against Escherichia coli HR DNA gyrase; assay type: protein-complex assay
[9] = test system: Staphylococcus aureus; assay: In vitro antibacterial activity expressed as MIC against Staphylococcus aureus; assay type: functional
[10] = test system: Proteus mirabilis; assay: (§2) In vitro antibacterial activity expressed as MIC against Proteus mirabilis; assay type: functional
[11] = test system: Morganella morganii; assay: In vitro antibacterial activity expressed as MIC against Morganella morganii II; assay type: functional
[12] = test system: Klebsiella aerogenes; assay: (§3) In vitro antibacterial activity expressed as MIC against Enterobacter aerogenes; assay type: functional
[13] = test system: Klebsiella oxytoca; assay: (§4) In vitro antibacterial activity expressed as MIC against Klebsiella oxytoca; assay type: functional
[14] = test system: Escherichia coli; assay: In vitro antibacterial activity expressed as MIC against Escherichia coli; assay type: functional
[15] = test system: Haemophilus influenzae; assay: (§5) In vitro antibacterial activity expressed as MIC against Haemophilus influenzae; assay type: functional
[16] = test system: Providencia stuartii; assay: In vitro antibacterial activity expressed as MIC against Providencia stuartii II; assay type: functional
[17] = target: T1, DNA gyrase (Escherichia coli); assay: In vitro inhibitory least concentration which show effect against Escherichia coli HR DNA gyrase; assay type: protein-complex assay
[18] = test system: Serratia marcescens; assay: In vitro antibacterial activity expressed as MIC against Serratia marcescens; assay type: functional
[19] = test system: Proteus mirabilis; assay: as §2
[20] = test system: Klebsiella oxytoca; assay: as §4
[21] = test system: Providencia rettgeri; assay: as §1
[22] = test system: Klebsiella aerogenes; assay: as §3
[23] = test system: Haemophilus influenzae; assay: as §5

Structure (SMILES) | MIC [1] [µg/mL] | MIC [2] [µg/mL] | MIC [3] [µg/mL] | MIC [4] [µg/mL] | MIC [5] [µg/mL] | MIC [6] [µg/mL] | MIC [7] [µg/mL] | IC100 [8] [µg/mL] | MIC [9] [µg/mL] | MIC [10] [µg/mL] | MIC [11] [µg/mL] | MIC [12] [µg/mL] | MIC [13] [µg/mL] | MIC [14] [µg/mL] | MIC [15] [µg/mL] | MIC [16] [µg/mL] | IC0 [17] [µg/mL] | MIC [18] [µg/mL] | IC0 [8] [µg/mL] | further results
N[C@H]1CCN(c2ccc3c(=O)c(C(=O)O)cn(C4CC4)c3c2F)C1 | 0.125 (≈ 0.377 µM) | 0.5 (≈ 1.51 µM) | 0.5 (≈ 1.51 µM) | 0.25 (≈ 0.754 µM) | 1 (≈ 3.02 µM) | 0.25 (≈ 0.754 µM) | 0.009 (≈ 0.0272 µM) | 10 | 0.06 (≈ 0.181 µM) | 0.03 (≈ 0.0905 µM) | 0.015 (≈ 0.0453 µM) | 0.03 (≈ 0.0905 µM) | 0.06 (≈ 0.181 µM) | 0.007 (≈ 0.0211 µM) | 0.007 (≈ 0.0211 µM) | 0.06 (≈ 0.181 µM) | 0.32 | 0.03 (≈ 0.0905 µM) |  | 
CCn1cc(C(=O)O)c(=O)c2ccc(C)nc21 |  |  |  |  |  |  | 2.5 (≈ 10.8 µM) | 200 |  |  |  |  |  |  |  |  |  |  | 25 | 
N[C@H]1CCN(c2cc(F)c3c(=O)c(C(=O)O)cn(C4CC4)c3c2)C1 | 8 (≈ 24.1 µM) |  | 4 (≈ 12.1 µM) | 4 (≈ 12.1 µM) | 16 (≈ 48.3 µM) | 16 (≈ 48.3 µM) | 0.156 (≈ 0.471 µM) | 20 | 8 (≈ 24.1 µM) | 0.5 (≈ 1.51 µM) | 0.25 (≈ 0.754 µM) | 0.5 (≈ 1.51 µM) | 1 (≈ 3.02 µM) | 0.25 (≈ 0.754 µM) | 0.13 (≈ 0.392 µM) | 1 (≈ 3.02 µM) | 0.64 | 0.5 (≈ 1.51 µM) |  | 
O=C(O)c1cn(C2CC2)c2cc(N3CCNCC3)c(F)cc2c1=O [CIPROFLOXACIN] | 0.5 (≈ 1.51 µM) |  | 0.25 (≈ 0.754 µM) |  |  | 0.5 (≈ 1.51 µM) | 0.009 (≈ 0.0272 µM) | 10 | 0.25 (≈ 0.754 µM) |  | 0.08 (≈ 0.241 µM) |  |  |  |  | 0.03 (≈ 0.0905 µM) |  | 0.03 (≈ 0.0905 µM) | 0.12 | MIC [19]: 0.008 µg/mL (≈ 0.0241 µM); MIC [20]: 0.06 µg/mL (≈ 0.181 µM); MIC [21]: 0.5 µg/mL (≈ 1.51 µM); MIC [22]: 0.03 µg/mL (≈ 0.0905 µM); MIC [23]: 0.03 µg/mL (≈ 0.0905 µM)
N[C@H]1CCN(c2ccc3c(=O)c(C(=O)O)cn(C4CC4)c3c2)C1 | 0.25 (≈ 0.798 µM) |  | 2 (≈ 6.38 µM) | 0.5 (≈ 1.6 µM) | 8 (≈ 25.5 µM) | 4 (≈ 12.8 µM) | 0.009 (≈ 0.0287 µM) | 20 | 0.5 (≈ 1.6 µM) | 0.13 (≈ 0.415 µM) | 0.13 (≈ 0.415 µM) | 0.06 (≈ 0.191 µM) | 0.25 (≈ 0.798 µM) | 0.03 (≈ 0.0957 µM) | 0.08 (≈ 0.255 µM) | 1 (≈ 3.19 µM) | 0.32 | 0.5 (≈ 1.6 µM) |  | 
N[C@H]1CCN(c2cc(F)c3c(=O)c(C(=O)O)cn(C4CC4)c3c2F)C1 | 0.5 (≈ 1.43 µM) | 1 (≈ 2.86 µM) | 4 (≈ 11.5 µM) | 2 (≈ 5.73 µM) | 8 (≈ 22.9 µM) | 4 (≈ 11.5 µM) | 0.078 (≈ 0.223 µM) | 10 | 1 (≈ 2.86 µM) | 0.13 (≈ 0.372 µM) | 0.06 (≈ 0.172 µM) | 0.25 (≈ 0.716 µM) | 0.5 (≈ 1.43 µM) | 0.06 (≈ 0.172 µM) | 0.06 (≈ 0.172 µM) | 0.5 (≈ 1.43 µM) | 0.32 | 0.25 (≈ 0.716 µM) |  | 
N[C@H]1CCN(c2cc3c(cc2F)c(=O)c(C(=O)O)cn3C2CC2)C1 | 0.03 (≈ 0.0905 µM) | 0.25 (≈ 0.754 µM) | 0.13 (≈ 0.392 µM) | 0.25 (≈ 0.754 µM) | 0.5 (≈ 1.51 µM) | 0.25 (≈ 0.754 µM) | 0.005 (≈ 0.0151 µM) | 20 | 0.06 (≈ 0.181 µM) | 0.03 (≈ 0.0905 µM) | 0.016 (≈ 0.0483 µM) | 0.016 (≈ 0.0483 µM) | 0.03 (≈ 0.0905 µM) | 0.008 (≈ 0.0241 µM) | 0.002 (≈ 0.00604 µM) | 0.03 (≈ 0.0905 µM) | 0.24 | 0.03 (≈ 0.0905 µM) |  | 
CCn1cc(C(=O)O)c(=O)c2cc(F)c(N3CCN(C)CC3)cc21 |  |  |  |  |  |  | 0.019 (≈ 0.057 µM) | 20 |  |  |  |  |  |  |  |  |  |  | 0.64 | 

— ChEMBL document CHEMBL1149932, “DNA - gyrase inhibition and antibacterial activity of fluoro-quinolones: influence of the position of the fluorine(s)” (1992)
